Read-outs that look alike come from different tables or passages of the source.
What was measured:
[1] = molecular target: T1, human glucocorticoid receptor (Homo sapiens, UniProt P04150); experiment: Glucocorticoid Receptor Binding Assay (I), fluorescence polarization competitor kit (Fluormone GS Red); conditions: purified human recombinant full-length GR
T1 construct: purified human recombinant full-length glucocorticoid receptor (2 nM); purchased Invitrogen Part # 2893
T1 sequence (P04150 1-777): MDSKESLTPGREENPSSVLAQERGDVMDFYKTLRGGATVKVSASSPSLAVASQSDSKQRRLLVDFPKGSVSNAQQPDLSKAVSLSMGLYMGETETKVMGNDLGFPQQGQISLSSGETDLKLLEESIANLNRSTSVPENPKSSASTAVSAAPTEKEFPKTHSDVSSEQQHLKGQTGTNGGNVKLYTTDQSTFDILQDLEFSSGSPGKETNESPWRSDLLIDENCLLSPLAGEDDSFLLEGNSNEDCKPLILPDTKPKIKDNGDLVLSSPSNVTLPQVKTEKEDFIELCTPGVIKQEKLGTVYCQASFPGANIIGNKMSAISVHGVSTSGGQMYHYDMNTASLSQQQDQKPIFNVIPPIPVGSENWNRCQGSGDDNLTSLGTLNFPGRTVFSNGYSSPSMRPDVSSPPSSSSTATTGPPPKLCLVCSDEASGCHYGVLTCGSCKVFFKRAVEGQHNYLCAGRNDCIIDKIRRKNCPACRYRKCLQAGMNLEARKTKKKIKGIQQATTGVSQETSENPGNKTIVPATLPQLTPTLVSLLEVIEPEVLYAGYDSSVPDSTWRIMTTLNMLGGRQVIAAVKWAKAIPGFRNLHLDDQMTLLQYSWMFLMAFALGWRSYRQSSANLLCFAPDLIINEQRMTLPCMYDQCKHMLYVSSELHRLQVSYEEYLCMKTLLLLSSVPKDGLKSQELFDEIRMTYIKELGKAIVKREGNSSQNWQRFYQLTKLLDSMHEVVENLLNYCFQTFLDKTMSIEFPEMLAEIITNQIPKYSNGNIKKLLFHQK
Procedure: In order to assess the affinity of test compounds for the human glucocorticoid receptor, a commercially available kit was used (Glucocorticoid Receptor Competitor Assay Kit, Invitrogen Part # 2893). Briefly, purified human recombinant full-length glucocorticoid receptor (2 nM) was mixed with fluorescently labeled glucocorticoid (1 nM Fluormone GS Red) in the presence or absence of test compound. After two hour incubation at room temperature in the dark, the fluorescence polarization (FP) of the samples was measured. […] Test compounds were analyzed in the concentration range from 8.5E-05 μM to 5 μM.

[2] = system: AP-1 induced transcriptional activity; experiment: Cellular Transrepressional Assay (AP-1 luciferase reporter in A549 cells, PMA-activated); type: cell-based; conditions: pAP-1-Luc, 10 ng/ml PMA, read-out: AP-1 (EC50, nM) (Cellular Transrepression Assay)
Procedure: To measure the ability of test molecules to inhibit AP-1 induced transcriptional activity an A549 cell was utilized which was stably transfected with a plasmid containing 7×AP-1 DNA binding sites (pAP-1-Luc plasmid, Stratagene Co. La Jolla, Calif.) followed by the gene for luciferase. Cells were activated with 10 ng/ml of phorbol myristic acid (PMA) plus or minus test molecules for 7 hours. After 7 hours a luciferase reagent was added to measure luciferase enzymatic activity in the cell. After a 10 minute incubation of luciferase reagent with cells, luminescence was measured in a TopCount luminescence counter. Repression of AP-1 activity was calculated as the percentage decrease in the signal induced by PMA alone. Test molecules were analyzed in the concentration range from 0.1 nM to 40 μM. EC50s were determined by using standard curve fitting methods such as Excel fit (Microsoft Co.).

Ki [1] [nM] | EC50 ([2]; Homo sapiens, A549, 7 h) [nM] | EC50 ([2]; 7 hours) [nM] | SMILES
3.1 | 2020 | – | CC(C)(C)NC(=O)NCC(C)(C)C(CCCO)c1ccc2c(cnn2-c2ccc(F)cc2)c1 (centres unmarked) [Example 107, 1-tert-Butyl-3-(3-(1-(4-fluorophenyl)-1H-indazol-5-yl)-6-hydroxy-2,2-dimethylhexyl)urea]
16 | > 10000 | – | CC(C)(CNC(=O)Nc1nccs1)C(C)(C)c1ccc2c(cnn2-c2ccc(F)cc2)c1 [Example 115, 1-(3-(1-(4-Fluorophenyl)-1H-indazol-5-yl)-2,2,3-trimethylbutyl)-3-(thiazol-2-yl)urea]
6.1 | 40 | – | CCCC(CNS(=O)(=O)CC(F)(F)F)C(c1ccccc1)c1ccc2c(cnn2-c2ccc(F)cc2)c1 (centres unmarked) [Example 99, 2,2,2-Trifluoro-N-(2-((1-(4-fluorophenyl)-1H-indazol-5-yl)(phenyl)methyl)pentyl)ethanesulfonamide]
1.7 | 77 | – | C=CCC(c1ccc2c(cnn2-c2ccc(F)cc2)c1)C(C)(C)CNC(=O)NC(C)(C)C (centres unmarked) [Example 105, 1-tert-butyl-3-(3-(1-(4-fluorophenyl)-1H-indazol-5-yl)-2,2-dimethylhex-5-enyl)urea]

Further lines, the compound ahead of its results:

SMILES | Ki [1] [nM] | EC50 ([2]; Homo sapiens, A549, 7 h) [nM] | EC50 ([2]; 7 hours) [nM]
CC(C)CC(c1ccc2c(cnn2-c2ccc(F)cc2)c1)C(C)(C)CNC(=O)NC(C)(C)c1ccnc(C(C)(C)C)c1 (centres unmarked) [Example 64, 1-(2-(2-tert-butylpyridin-4-yl)propan-2-yl)-3-(3-(1-(4-fluorophenyl)-1H-indazol-5-yl)-2,2,5-trimethylhexyl)urea] | 17 | > 10000 | –
CC(CNC(=O)NC(C)(C)C)C(c1ccccc1)c1ccc2c(cnn2-c2ccc(F)cc2)c1 (single isomer, unassigned) [Example 97A, 1-tert-butyl-3-(3-(1-(4-fluorophenyl)-1H-indazol-5-yl)-2-methyl-3-phenylpropyl)urea] | 4 | – | 71
Cc1cc(C)c(S(=O)(=O)NCC(C)(C)C(CC(C)C)c2ccc3c(cnn3-c3ccc(F)cc3)c2)c(C)c1 (centres unmarked) [Example 81, N-(3-(1-(4-fluorophenyl)-1H-indazol-5-yl)-2,2,5-trimethylhexyl)-2,4,6-trimethylbenzenesulfonamide] | 8.7 | > 5000 | –
CC(C)CC(c1ccc2c(cnn2-c2ccc(F)cc2)c1)C(C)(C)CNC(=O)CC(C)(C)c1ccc(Cl)cc1 (centres unmarked) [Example 68, 3-(4-chlorophenyl)-N-(3-(1-(4-fluorophenyl)-1H-indazol-5-yl)-2,2,5-trimethylhexyl)-3-methylbutanamide] | 8.1 | 271 | –
CC(CNS(=O)(=O)CC(F)(F)F)C(c1ccccc1)c1ccc2c(cnn2-c2ccc(F)cc2)c1 (single isomer, unassigned) [Example 91C, 2,2,2-trifluoro-N-(3-(1-(4-fluorophenyl)-1H-indazol-5-yl)-2-methyl-3-phenylpropyl)ethanesulfonamide] | 2.8 | – | 83
CC(C)CC(c1ccc2c(cnn2-c2ccc(F)cc2)c1)C(C)(C)CNC(=O)[C@@H](O)C(C)(C)C (single isomer, unassigned) [Example 69 diastB, N-(3-(1-(4-fluorophenyl)-1H-indazol-5-yl)-2,2,5-trimethylhexyl)-2-hydroxy-3,3-dimethylbutanamide] | 3.4 | > 10000 | –
CC(C)CC(c1ccc2c(cnn2-c2ccc(F)cc2)c1)C(C)(C)CNC(=O)OCC(C)(C)C (centres unmarked) [Example 62, neopentyl 3-(1-(4-fluorophenyl)-1H-indazol-5-yl)-2,2,5-trimethylhexylcarbamate] | 11 | > 10000 | –
CC(C)CC(c1ccc2c(cnn2-c2ccc(F)cc2)c1)C(C)(C)CNC(=O)NC1CCN(Cc2ccccc2)CC1 (centres unmarked) [Example 79, 1-(1-benzylpiperidin-4-yl)-3-(3-(1-(4-fluorophenyl)-1H-indazol-5-yl)-2,2,5-trimethylhexyl)urea] | 11 | 5000 | –
CC(C)CC(c1ccc2c(cnn2-c2ccc(F)cc2)c1)C(C)(C)CNS(=O)(=O)NC(C)(C)C (centres unmarked) [Example 63] | 4.3 | > 10000 | –
